According to patent US20220046923A1, “HERBICIDAL CINNOLINIUM COMPOUNDS” (SYNGENTA CROP PROTECTION AG, priority 2018, published 2022):

Legend:
Assay in all cases: Post-emergence efficacy, glasshouse spray test
Assay type in all cases: in vivo
[1] = test system: Chenopodium album (CHEAL); conditions: Chenopodium album, post-emergence, 312 h; application rate 1000 g/Ha; evaluated after 13 days; read-out: Control of weed species CHEAL after post-emergence application (100=total damage to plant; 0=no damage to plant)
Method in brief: (§1)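 Seeds were sown in pots of standard soil and grown for 14 days under controlled glasshouse conditions. Seedlings were sprayed with the compound emulsified via acetone and IF50 and diluted in sodium lauryl ether sulphate (0.25% or 1%) with 1% ammonium sulphate. They were kept at 24/16 °C with 14 h light and 65% humidity and rated for damage on a 0–100 scale after 13 days.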

[2] = test system: Digitaria sanguinalis (DIGSA); conditions: Digitaria sanguinalis, post-emergence, 312 h; application rate 1000 g/Ha; evaluated after 13 days; read-out: Control of weed species DIGSA after post-emergence application (100=total damage to plant; 0=no damage to plant)
Method in brief: as §1

[3] = test system: Amaranthus palmeri (AMAPA); conditions: Amaranthus palmeri, post-emergence, 312 h; application rate 1000 g/Ha; evaluated after 13 days; read-out: Control of weed species AMAPA after post-emergence application (100=total damage to plant; 0=no damage to plant)
Method in brief: as §1

[4] = test system: Echinochloa crus-galli (ECHCG); conditions: Echinochloa crus-galli, post-emergence, 312 h; application rate 1000 g/Ha; evaluated after 13 days; read-out: Control of weed species ECHCG after post-emergence application (100=total damage to plant; 0=no damage to plant)
Method in brief: as §1

Lolium perenne (LOLPE) = conditions: Lolium perenne, post-emergence, 312 h; application rate 1000 g/Ha; evaluated after 13 days; read-out: Control of weed species LOLPE after post-emergence application (100=total damage to plant; 0=no damage to plant)
Method in brief: as §1

Setaria faberi (SETFA) = conditions: Setaria faberi, post-emergence, 312 h; application rate 1000 g/Ha; evaluated after 13 days; read-out: Control of weed species SETFA after post-emergence application (100=total damage to plant; 0=no damage to plant)
Method in brief: as §1

[5] = test system: Euphorbia heterophylla (EPHHL); conditions: Euphorbia heterophylla, post-emergence, 312 h; application rate 1000 g/Ha; evaluated after 13 days; read-out: Control of weed species EPHHL after post-emergence application (100=total damage to plant; 0=no damage to plant)
Method in brief: as §1

Eleusine indica (ELEIN) = conditions: Eleusine indica, post-emergence, 312 h; application rate 1000 g/Ha; evaluated after 13 days; read-out: Control of weed species ELEIN after post-emergence application (100=total damage to plant; 0=no damage to plant)
Method in brief: as §1

[6] = test system: Ipomoea hederacea (IPOHE); conditions: Ipomoea hederacea, post-emergence, 312 h; application rate 1000 g/Ha; evaluated after 13 days; read-out: Control of weed species IPOHE after post-emergence application (100=total damage to plant; 0=no damage to plant)
Method in brief: as §1

| Structure (SMILES) | pest or weed control at 1000 g/ha [1] | pest or weed control at 1000 g/ha [2] | pest or weed control at 1000 g/ha [3] | pest or weed control at 1000 g/ha [4] | pest or weed control at 1000 g/ha (Lolium perenne (LOLPE)) | pest or weed control at 1000 g/ha (Setaria faberi (SETFA)) | pest or weed control at 1000 g/ha [5] | pest or weed control at 1000 g/ha (Eleusine indica (ELEIN)) | pest or weed control at 1000 g/ha [6] |
| --- | --- | --- | --- | --- | --- | --- | --- | --- | --- |
| O=S(=O)([O-])CC[n+]1ccc2cccc(Cl)c2n1 [Compound A22] | 70% | 50% | 70% | 40% | 20% | 30% | 70% | 70% | 20% |
| O=P(O)(O)CCC[n+]1ccc2ccccc2n1 [Compound A70] | 90% | 80% | 80% | 40% | 40% | 60% | 80% | 90% | 100% |
| CS(=O)(=O)NC(=O)C[n+]1ccc2ccccc2n1 [Compound A15, 2-cinnolin-2-ium-2-yl-N-methylsulfonyl-acetamide bromide] | 80% | 70% | 90% | 40% | 60% | 60% | 90% | 80% | 80% |
| Cc1ccc2n[n+](CC(=O)[O-])ccc2c1 [Compound A69] | 0% | 30% | 30% | 40% | 0% | 30% | 40% | 30% | 0% |
| Cc1cc2ccccc2n[n+]1CCCS(=O)(=O)[O-] [Compound A76] | 60% | 60% | 60% | 60% | 30% | 60% | 50% | 60% | 40% |
| OCC[n+]1ccc2ccccc2n1 [Compound A119] | 90% | 50% | 90% | 20% | 20% | 50% | 80% | 40% | 50% |
| Cc1ccc2n[n+](CC(=O)[O-])cc(C)c2c1 [Compound A10] | 30% | 50% | 30% | 40% | 10% | 40% | 40% | 70% | 40% |
